Experimental data reported in article PMC8998978, “Toward a Treatment of Cancer: Design and In Vitro/In Vivo Evaluation of Uncharged Pyrazoline Derivatives as a Series of Novel SHP2 Inhibitors” (International Journal of Molecular Sciences, 2022).

Tests used:
NCI-H1975 cells = experiment: Cell viability assay (SRB); assay type: cell-based; conditions: Homo sapiens, NCI-H1975, 72 h
From the text: (§1) Human colon cancer cell line HCT116, hepatoma cell lines HepG2 and BEL-7402, lung adenocarcinoma cell lines NCI-H1975 and 95-D, pancreatic cancer cell line Panc-1, breast cancer cell line MDA-MB-231, NSCLC cell line NCI-H1299, ovarian cancer cell line SK-OV-3, leukemia cell line K562, glioma cell line U87, colon epithelial cell line NCM460 and umbilical vein endothelial cell line HUVEC were purchased from the Institute of Biochemistry and Cell Biology, Chinese Academy of Sciences (Shanghai, China). HCT116 cell line was cultured in McCoy’s 5A medium (Hyclone, Logan, UT, USA). HepG2, 95-D, Panc-1, MDA-MB-231, BEL-7402, SK-OV-3, U87 and NCM460 cell lines were cultured in DMEM-High glucose medium (Hyclone, Logan, UT, USA). NCI-H1975, NCI-H1299 and HUVEC cell lines were cultured in RPMI 1640 medium (Hyclone, Logan, UT, USA). K562 cell line was cultured in IMDM medium (Hyclone, Logan, UT, USA). All of them were incubated in the medium with 10% fetal bovine serum (PAN, Adenbach, Bavaria, Germany) and 1% penicillin-streptomycin (Gibco-Invitrogen, Grand Island, NY, USA) under a humidified atmosphere of 5% CO2 at 37 °C.
(§2) The inhibition rate of cell viability was detected by 3-(4,5-dimethyl-2-thiazolyl)-2,5-diphenyl-2-H-tetrazolium bromide (MTT, Solarbio, Beijing, China) or Sulforhodamine B (SRB, Sigma-Aldrich, St. Louis, MO, USA) assay. In MTT assay, the suspension cells were inoculated in 96-well plates at the density of 5000 cells per well, and incubated with 4o at indicated concentrations dissolved in DMSO for 72 h. Each well was incubated with MTT solution (5 mg/mL) at 37 °C for 4 h, DMSO was added and incubated overnight at 37 °C. The absorbance at 570 nm was measured in a multimode reader (Berthold Technologies, Germany). In SRB assay, adherent cells were seeded in 96-well plates (5000 cells per well). After 24 h, the cells were treated with 4o for 72 h, and then fixed with precooling 10% TCA solution at 4 °C for 1 h. After washing and drying, SRB staining was added for 15 min, and then washed and dried by 1% acetic acid. Finally, Tris–HCl solution was added, and the absorbance at 515 nm was detected in a multimode reader (Berthold Technologies, Germany).

95-D cells = experiment: Cell viability assay (SRB); assay type: cell-based; conditions: Homo sapiens, 72 h
From the text: as §1, §2

HCT116 cells xenograft = experiment: Anti-tumor activity in vivo, HCT116 xenograft model; parameters: species or system BALB/c-nude mice
Protocol: Male BALB/c-nude mice (Jinan Pengyue Experimental Animal Breeding Co., Ltd., Jinan, China), 5 weeks of age, were used. The mice were housed in a specific pathogen-free room with temperature controlled (22 ± 2 °C), humidity (55 ± 10%) and a light/dark cycle of 12 h, providing sterile food and water. The HCT116 cells xenograft model was conducted, and 1 × 10^7 HCT116 cells were subcutaneously injected into the right armpit of mice. The tumor volume of mice was measured every three days to evaluate the tumor growth. When the tumor volume reached about 100 mm^3, the mice were randomly divided into four groups (n = 6), and treated with vehicle (0.5% CMC-Na solution) or 4o (25, 50 mg/kg) by gavage once a day for 13 consecutive days. A total of 25 mg/kg 5-FU was used as a positive control. The body weight of mice was measured every three days. The length (L) and width (W) of tumors were measured by electronic caliper every three days. The volume (V) was calculated as follows: V = (L × W^2)/2. When the tumor volume reached about 1000 mm^3, the tumors were excised. Immunohistochemical analysis were used to evaluate the related protein levels.

HCT116 cells = experiment: Hoechst 33258 staining; assay type: cell-based, human; conditions: HCT116, 4o 2.5, 5 and 10 μM, 24 h
Protocol: HCT116 cells were treated with different concentrations of 4o for 24 h, then were stained with Hoechst 33,258 (Beyotime Institute of Biotechnology, Shanghai, China). The nuclear morphology was observed under fluorescence microscope.

[1] = biological target: T1, recombinant human SHP2 protein (Homo sapiens, UniProt Q06124); experiment: SHP2 inhibition assay (pNPP substrate); assay type: biochemical; conditions: pNPP 4 mM, SHP2 240 nM, 37 °C, 30 min; means ± SD
T1 sequence (Q06124 1-593): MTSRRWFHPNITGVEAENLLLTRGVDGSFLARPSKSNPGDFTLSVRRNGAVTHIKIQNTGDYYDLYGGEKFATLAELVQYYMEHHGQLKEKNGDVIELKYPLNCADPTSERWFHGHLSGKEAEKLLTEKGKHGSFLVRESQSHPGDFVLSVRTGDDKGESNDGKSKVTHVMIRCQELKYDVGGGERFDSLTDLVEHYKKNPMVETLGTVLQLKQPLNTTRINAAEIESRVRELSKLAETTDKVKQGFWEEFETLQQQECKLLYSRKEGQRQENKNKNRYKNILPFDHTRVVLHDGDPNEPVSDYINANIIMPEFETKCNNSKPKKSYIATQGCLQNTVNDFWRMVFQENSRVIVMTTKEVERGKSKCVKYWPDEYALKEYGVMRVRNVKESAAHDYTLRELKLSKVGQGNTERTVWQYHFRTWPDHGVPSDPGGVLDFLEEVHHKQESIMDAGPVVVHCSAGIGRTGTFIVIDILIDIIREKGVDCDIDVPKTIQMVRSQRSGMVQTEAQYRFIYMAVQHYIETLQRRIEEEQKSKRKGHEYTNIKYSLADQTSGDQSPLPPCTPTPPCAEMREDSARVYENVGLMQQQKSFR
Protocol: pGEX-4T1 SHP2 WT (plasmid #8322) was purchased from Addgene. […] Then, 0.2 mM IPTG (Sangon Biotech, Shanghai, China) was added to induce the expression of protein at 30 °C for 4 h followed by centrifugation and cells collection. Cells were then broken by ultrasound in lysis buffer (20 mM Tris–HCl (pH 8.0), 100 mM KCl, 10% glycerol, 1 mM DTT, 0.5% Triton X-100) on ice. The supernatant was collected by centrifugation at 10,000× g for 15 min at 4 °C. The BeaverBeads GSH (Beaver Biosciences Inc., Guangzhou, China) washed by lysis buffer were incubated with the supernatant for 2 h at 4 °C. […] Then, the experiment was performed in a final volume of 100 μL containing 10 mM Tris–HCl (pH 7.5), 25 mM NaCl, 1 mM EDTA and 4 mM pNPP in a 96-well plate at 37 °C for 30 min. The amount of product p-nitrophenol was determined by the absorbance at 405 nm in a multimode reader (Berthold Technologies GmbH & Co.KG, Bad Wildbad, Baden Württemberg, Germany). The IC50 value was calculated by GraphPad Prism 7.0 software (GraphPad Inc, San Diego, CA, USA).

**Q.** Which IC50 (NCI-H1975 cells) does the source give for `CCOc1ccc(Oc2ccc(C3=NN(C4=NC(=O)CS4)C(c4cc(O)c(O)c(Br)c4Br)C3)cc2)cc1` (stereo not drawn) [Compound 4o, 2-(5-(2,3-dibromo-4,5-dihydroxyphenyl)-3-(4-(4-ethoxyphenoxy)phenyl)-4,5-dihydro-1H-pyrazol-1-yl)thiazol-4(5H)-one] here?
**A.** Its IC50 is 5.29 ± 0.6 µM.

**Q.** And the IC50 (95-D cells)?
**A.** Its IC50 is 5.42 ± 0.44 µM.

**Q.** And the Tumor inhibition rate (HCT116 cells xenograft; 4o 25 mg/kg by gavage once daily, 13 days)?
**A.** Its Tumor inhibition rate is 58.8%.

**Q.** And the Tumor inhibition rate (HCT116 cells xenograft; 4o 50 mg/kg by gavage once daily, 13 days)?
**A.** Its Tumor inhibition rate is 67.2%.

**Q.** And the “Effect on body weight of tumor-bearing mice” value (HCT116 cells xenograft; 4o 25, 50 mg/kg or 5-FU 25 mg/kg, 13 days)?
**A.** The value was “did not have any obvious effect on the body weight”.

**Q.** And the “Expression of Ki67 and p-Erk in tumors (immunohistochemistry)” value (HCT116 cells xenograft; 4o 25, 50 mg/kg, 13 days)?
**A.** Its value is “significantly decreased”.

**Q.** What about the Tumor weight (HCT116 cells xenograft; 4o 25, 50 mg/kg, after 13 days, versus vehicle) of the same compound?
**A.** Its Tumor weight is “much lighter”.

**Q.** And the “Nuclear morphology (Hoechst 33,258 staining)” value (HCT116 cells)?
**A.** Its value is “chromatin was condensed and apoptosis occurred”.

**Q.** What about the IC50 [1] of the same compound?
**A.** Its IC50 is 1.56 ± 0.25 µM.
